# Target: MABP-1 (Rv3197) (Mycobacterium tuberculosis, UniProt O53343)
# Sequence (O53343 entry or part of it): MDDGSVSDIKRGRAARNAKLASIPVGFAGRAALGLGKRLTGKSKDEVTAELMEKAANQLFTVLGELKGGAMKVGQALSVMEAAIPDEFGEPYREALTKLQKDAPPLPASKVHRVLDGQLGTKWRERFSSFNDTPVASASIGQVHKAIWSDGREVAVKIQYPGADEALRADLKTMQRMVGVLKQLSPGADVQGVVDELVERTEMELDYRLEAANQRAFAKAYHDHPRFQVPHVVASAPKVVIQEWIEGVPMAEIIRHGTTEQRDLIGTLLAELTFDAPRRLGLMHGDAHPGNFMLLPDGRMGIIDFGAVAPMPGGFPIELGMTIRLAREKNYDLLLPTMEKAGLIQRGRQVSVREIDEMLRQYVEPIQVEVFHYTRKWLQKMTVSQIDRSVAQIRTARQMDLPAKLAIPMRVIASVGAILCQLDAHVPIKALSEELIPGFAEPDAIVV
row,SMILES,crystal structure of the complex
1,Nc1ncnc2c1ncn2[C@@H]1O[C@H](COP(=O)(O)OP(=O)(O)O)[C@@H](O)[C@H]1O [ADP],"crystal structures of MABP-1 in complex with AMPPNP and with ADP, were determined"
2,Nc1ncnc2c1ncn2[C@@H]1O[C@H](COP(=O)(O)OP(=O)(O)NP(=O)(O)O)[C@@H](O)[C@H]1O [AMPPNP],"crystal structures of MABP-1 in complex with AMPPNP and with ADP, were determined"
3,CC[C@H]1OC(=O)[C@H](C)[C@@H](O[C@H]2C[C@@](C)(OC)[C@@H](O)[C@H](C)O2)[C@H](C)[C@@H](O[C@@H]2O[C@H](C)C[C@H](N(C)C)[C@H]2O)[C@](C)(O)C[C@@H](C)C(=O)[C@H](C)[C@@H](O)[C@]1(C)O [erythromycin],The electron density for erythromycin was unequivocal revealing it is located in a shallow pocket

# Reference: PMC6208485, “Discovery of the first macrolide antibiotic binding protein in Mycobacterium tuberculosis: a new antibiotic resistance drug target” (Protein & Cell, 2018)
